Source: patent US12528800B2, “Pesticidal compounds” (BASF SE, priority 2018, dated 2026)

Key:
Assay type in all cases: in vivo
[1] = tested on: boll weevil (Anthonomus grandis); assay: Action on boll weevil (Anthonomus grandis), microtiter plate diet test; settings: 120 h, egg and larval mortality after 5 days, read-out: mortality in comparison with untreated controls
Method: For evaluating control of boll weevil (Anthonomus grandis) the test unit consisted of 96-well-microtiter plates containing an insect diet and 5-10 A. grandis eggs.
The compounds were formulated using a solution containing 75% (v/v) water and 25% (v/v) DMSO. Different concentrations of formulated compounds were sprayed onto the insect diet at 5 μl, using a custom built micro atomizer, at two replications.
After application, microtiter plates were incubated at about 25+1° C. and about 75+5% relative humidity for 5 days. Egg and larval mortality was then visually assessed.

[2] = tested on: Diamond back moth (Plutella xylostella); assay: Action on diamond back moth (Plutella xylostella), cabbage leaf dip; settings: foliar, 3rd instar larvae on dipped cabbage leaves, 72 hours after treatment, read-out: mortality in comparison with untreated controls
Method: The active compound is dissolved at the desired concentration in a mixture of 1:1 (v/v) distilled water: acetone. Surfactant (Kinetic® HV) is added at a rate of 0.01% (v/v). The test solution is prepared at the day of use.
Leaves of cabbage were dipped in test solution and air-dried. Treated leaves were placed in petri dishes lined with moist filter paper and inoculated with ten 3rd instar larvae. Mortality was recorded 72 hours after treatment. Feeding damages were also recorded using a scale of 0-100%.

[3] = tested on: Southern armyworm (Spodoptera eridania), 2nd instar larvae; assay: Action on southern armyworm (Spodoptera eridania), 2nd instar larvae, sprayed lima bean plants; settings: 96 h, 2nd instar larvae on lima bean plants, 4 days after treatment, read-out: mortality in comparison with untreated controls
Method: The active compounds were formulated by a Tecan liquid handler in 100% cyclohexanone as a 10,000 ppm solution supplied in tubes. The 10,000 ppm solution was serially diluted in 100% cyclohexanone to make interim solutions. These served as stock solutions for which final dilutions were made by the Tecan in 50% acetone:50% water (v/v) into 10 or 20 ml glass vials. A nonionic surfactant (Kinetic®) was included in the solution at a volume of 0.01% (v/v). The vials were then inserted into an automated electrostatic sprayer equipped with an atomizing nozzle for application to plants/insects.
Lima bean plants (variety Sieve) were grown 2 plants to a pot and selected for treatment at the 1st true leaf stage. Test solutions were sprayed onto the foliage by an automated electrostatic plant sprayer equipped with an atomizing spray nozzle. The plants were dried in the sprayer fume hood and then removed from the sprayer. Each pot was placed into perforated plastic bags with a zip closure. About 10 to 11 armyworm larvae were placed into the bag and the bags zipped closed. Test plants were maintained in a growth room at about 25° C. and about 20-40% relative humidity for 4 days, avoiding direct exposure to fluorescent light (24 hour photoperiod) to prevent trapping of heat inside the bags. Mortality and reduced feeding were assessed 4 days after treatment, compared to untreated control plants.

[4] = tested on: yellow fever mosquito (Aedes aegypti); assay: whole plant or invertebrate; settings: 48 h, larval mortality visually assessed after 2 days, read-out: mortality in comparison with untreated controls
Method: For evaluating control of yellow fever mosquito (Aedes aegypti) the test unit consisted of 96-well-microtiter plates containing 200 μl of tap water per well and 5-15 freshly hatched A. aegypti larvae.
The active compounds or mixtures were formulated using a solution containing 75% (v/v) water and 25% (v/v) DMSO. Different concentrations of formulated compounds or mixtures were sprayed onto the insect diet at 2.5 μl using a custom built micro atomizer, at two replications.
For experimental mixtures in these tests identical volumes of both mixing partners at the desired concentrations respectively, were mixed together.
After application, microtiter plates were incubated at 28+1° C., 80+5% RH for 2 days. Larval mortality was then visually assessed.

[5] = tested on: tobacco budworm (Heliothis virescens); assay: Action on tobacco budworm (Heliothis virescens), microtiter plate diet test; settings: 120 h, egg and larval mortality after 5 days, read-out: mortality in comparison with untreated controls
Method: For evaluating control of tobacco budworm (Heliothis virescens) the test unit consisted of 96-well-microtiter plates containing an insect diet and 15-25 H. virescens eggs.
The compounds were formulated using a solution containing 75% v/v water and 25% v/v DMSO. Different concentrations of formulated compounds were sprayed onto the insect diet at 10 μl, using a custom-built micro atomizer, at two replications.
After application, microtiter plates were incubated at about 28+1° C. and about 80+5% relative humidity for 5 days. Egg and larval mortality were then visually assessed.

[6] = tested on: Orchid thrips (Dichromothrips corbetti); assay: Action on orchid thrips (Dichromothrips corbetti), floral-immersion technique; settings: adult thrips, 72 hours after treatment, read-out: mortality in comparison with untreated controls
Method: Dichromothrips corbetti adults used for bioassay were obtained from a colony maintained continuously under laboratory conditions. For testing purposes, the test compound is diluted in a 1:1 mixture of acetone:water (vol:vol), plus Kinetic® HV at a rate of 0.01% v/v.
Thrips potency of each compound was evaluated by using a floral-immersion technique. All petals of individual, intact orchid flowers were dipped into treatment solution and allowed to dry in Petri dishes. Treated petals were placed into individual re-sealable plastic along with about 20 adult thrips. All test arenas were held under continuous light and a temperature of about 28° C. for duration of the assay. After 3 days, the numbers of live thrips were counted on each petal. The percent mortality was recorded 72 hours after treatment.

[7] = tested on: Silverleaf whitefly (Bemisia argentifolii) (adults); assay: Action on silverleaf whitefly (Bemisia argentifolii) adults, sprayed cotton plants; settings: 72 h, 3 days after treatment, read-out: mortality in comparison with untreated controls
Method: The active compounds were formulated by a Tecan liquid handler in 100% cyclohexanone as a 10,000 ppm solution supplied in tubes. The 10,000 ppm solution was serially diluted in 100% cyclohexanone to make interim solutions. These served as stock solutions for which final dilutions were made by the Tecan in 50% acetone:50% water (v/v) into 5 or 10 ml glass vials. A nonionic surfactant (Kinetic®) was included in the solution at a volume of 0.01% (v/v). The vials were then inserted into an automated electrostatic sprayer equipped with an atomizing nozzle for application to plants/insects.
Cotton plants at the cotyledon stage (one plant per pot) were sprayed by an automated electrostatic plant sprayer equipped with an atomizing spray nozzle. The plants were dried in the sprayer fume hood and then removed from the sprayer. Each pot was placed into a plastic cup and about 10 to 12 whitefly adults (approximately 3-5 days old) were introduced. The insects were collected using an aspirator and a nontoxic Tygon® tubing connected to a barrier pipette tip. The tip, containing the collected insects, was then gently inserted into the soil containing the treated plant, allowing insects to crawl out of the tip to reach the foliage for feeding. Cups were covered with a reusable screened lid. Test plants were maintained in a growth room at about 25° C. and about 20-40% relative humidity for 3 days, avoiding direct exposure to fluorescent light (24 hour photoperiod) to prevent trapping of heat inside the cup. Mortality was assessed 3 days after treatment, compared to untreated control plants.

Row | Structure (SMILES) | mortality at 800 ppm [1] [%] | mortality at 500 ppm [2] [%] | mortality at 300 ppm [3] [%] | mortality at 800 ppm [4] [%] | mortality at 800 ppm [5] [%] | mortality at 500 ppm [6] [%] | mortality at 300 ppm [7] [%]
1 | CC(C)c1ccccc1N1C(=O)CS/C1=N\N=C\c1ccc(-c2nc(NC(=O)c3ccc(OC(F)(F)F)cc3)n(C)n2)cc1 [Compound C-64, N-[5-[4-[(E)-[(Z)-[3-(2-isopropylphenyl)-4-oxo-thiazolidin-2-ylidene]hydrazono]methyl]phenyl]-2-methyl-1,2,4-triazol-3-yl]-4-(trifluoromethoxy)benzamide] | ≥ 75 | ≥ 75 | ≥ 75 | ≥ 50 | ≥ 75 | ≥ 75 | –
2 | CC(C)c1ccccc1NC(=S)N/N=C/c1ccc(-c2cc(NC(=N)c3ccc(OC(F)(F)F)cc3)n(C)n2)cc1 [Compound C-5, 1-(2-isopropylphenyl)-3-[(E)-[4-[1-methyl-5-[[4-(trifluoromethoxy)benzenecarboximidoyl]amino]pyrazol-3-yl]phenyl]methyleneamino]thiourea] | ≥ 75 | ≥ 75 | ≥ 75 | ≥ 50 | ≥ 75 | ≥ 75 | –
3 | CC(C)c1ccccc1NC(=S)N/N=C/c1ccc(-c2cc(NCc3ccc(OC(F)(F)F)cc3)n(C)n2)cc1 [Compound C-3, 1-(2-isopropylphenyl)-3-[(E)-[4-[1-methyl-5-[[4-(trifluoromethoxy)phenyl]methylamino]pyrazol-3-yl]phenyl]methyleneamino]thiourea] | ≥ 75 | ≥ 75 | ≥ 75 | ≥ 50 | ≥ 75 | ≥ 75 | –
4 | CC(C)c1ccccc1NC(=S)N/N=C/c1ccc(-c2nc(NC(=O)c3ccc(OC(F)(F)F)cc3)n(C)n2)cc1 [Compound C-63, N-[5-[4-[(E)-[(2-isopropylphenyl)carbamothioylhydrazono]methyl]phenyl]-2-methyl-1,2,4-triazol-3-yl]-4-(trifluoromethoxy)benzamide] | ≥ 75 | ≥ 75 | – | – | ≥ 75 | ≥ 75 | –
5 | CCn1nc(-c2ccc(/C=N/NC(=S)Nc3ccccc3C(C)C)cc2)cc1NC(=O)c1ccc(OC(F)(F)F)cc1 [Compound C-29, N-[2-ethyl-5-[4-[(E)-[(2-isopropylphenyl)carbamothioylhydrazono]methyl]phenyl]pyrazol-3-yl]-4-(trifluoromethoxy)benzamide] | ≥ 75 | ≥ 75 | ≥ 75 | ≥ 50 | ≥ 75 | ≥ 75 | –
6 | CC(C)c1ccccc1NC(=S)N/N=C/c1ccc(-c2cc(OCc3ccc(OC(F)(F)F)cc3)n(C)n2)cc1 [Compound C-10, 1-(2-isopropylphenyl)-3-[(E)-[4-[1-methyl-5-[[4-(trifluoromethoxy)phenyl]methoxy]pyrazol-3-yl]phenyl]methyleneamino]thiourea] | ≥ 75 | ≥ 75 | ≥ 75 | – | ≥ 75 | ≥ 75 | ≥ 75
7 | CC(C)c1ccccc1N1C(=O)CS/C1=N\N=C\c1ccc(-c2cc(NC(=O)c3ccc(OC(F)(F)F)cc3)[nH]n2)cc1 [Compound C-58, N-[3-[4-[(E)-[(Z)-[3-(2-isopropylphenyl)-4-oxo-thiazolidin-2-ylidene]hydrazono]methyl]phenyl]-1H-pyrazol-5-yl]-4-(trifluoromethoxy)benzamide] | ≥ 75 | ≥ 75 | – | ≥ 50 | ≥ 75 | ≥ 75 | –
8 | CC(C)c1ccccc1NC(=S)N/N=C/c1ccc(-c2cc(COc3ccc(OC(F)(F)F)cc3)n(C)n2)cc1 [Compound C-52, 1-(2-isopropylphenyl)-3-[(E)-[4-[1-methyl-5-[[4-(trifluoromethoxy)phenoxy]methyl]pyrazol-3-yl]phenyl]methyleneamino]thiourea] | ≥ 75 | ≥ 75 | ≥ 75 | ≥ 50 | ≥ 75 | ≥ 75 | ≥ 75
9 | CC(C)c1ccccc1NC(=S)N/N=C/c1ccc(-c2cc(NC(=O)c3ccc(OC(F)(F)F)cc3)[nH]n2)cc1 [Compound C-57, N-[3-[4-[(E)-[(2-isopropylphenyl)carbamothioylhydrazono]methyl]phenyl]-1H-pyrazol-5-yl]-4-(trifluoromethoxy)benzamide] | ≥ 75 | ≥ 75 | – | ≥ 50 | ≥ 75 | ≥ 75 | –
10 | CC(C)c1ccccc1NC(=S)N/N=C/c1ccc(-c2cc(NC(=O)c3ccc(OC(F)(F)F)cc3)n(C)n2)cc1 [Compound C-1, N-[5-[4-[(E)-[(2-isopropylphenyl)carbamothioylhydrazono]methyl]phenyl]-2-methyl-pyrazol-3-yl]-4-(trifluoromethoxy)benzamide] | ≥ 75 | ≥ 75 | ≥ 75 | ≥ 50 | ≥ 75 | ≥ 75 | ≥ 75
11 | Cc1c(-c2ccc(/C=N/NC(=S)Nc3ccccc3C(C)C)cc2)nn(C)c1NC(=O)c1ccc(C(F)(F)F)cc1 [Compound C-15, N-[5-[4-[(E)-[(2-isopropylphenyl)carbamothioylhydrazono]methyl]phenyl]-2,4-dimethyl-pyrazol-3-yl]-4-(trifluoromethyl)benzamide] | ≥ 75 | ≥ 75 | ≥ 75 | – | ≥ 75 | ≥ 75 | –
